Data on ten compounds can be found in ChEMBL document CHEMBL5291721, “A preclinical secondary pharmacology resource illuminates target-adverse drug reaction associations of marketed drugs” (Nat Commun, 2023).

Molecules are shown by their SMILES. Where a SMILES comes first, the peptide text is derived from it. [ ]: non-standard residue; d: D form. pGlu = O=C1CC[C@@H](C(=O)O)N1; Thz = O=C(O)[C@@H]1CSCN1

For orientation: AC50 means the concentration giving half of the maximal activity seen.

Assay [1] has as its target T1, Alpha-2A adrenergic receptor (Homo sapiens, UniProt P08913).
T1 sequence (P08913 whole entry): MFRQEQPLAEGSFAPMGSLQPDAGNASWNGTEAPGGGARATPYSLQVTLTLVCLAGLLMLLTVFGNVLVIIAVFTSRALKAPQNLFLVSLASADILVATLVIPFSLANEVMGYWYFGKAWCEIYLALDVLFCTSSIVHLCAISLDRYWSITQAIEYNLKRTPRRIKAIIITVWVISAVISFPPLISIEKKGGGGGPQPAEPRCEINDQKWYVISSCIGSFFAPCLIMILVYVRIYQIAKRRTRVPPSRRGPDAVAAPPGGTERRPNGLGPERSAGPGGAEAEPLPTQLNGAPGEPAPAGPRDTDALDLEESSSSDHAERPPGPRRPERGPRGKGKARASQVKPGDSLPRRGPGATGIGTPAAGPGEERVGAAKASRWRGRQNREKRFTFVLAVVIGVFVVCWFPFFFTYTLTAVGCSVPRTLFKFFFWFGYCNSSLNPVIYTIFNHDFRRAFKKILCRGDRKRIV
The format is functional, cell-based.

For assay [2], the target named is Beta-1 adrenergic receptor (Homo sapiens, UniProt P08588). It counts as functional.
Beta-1 adrenergic receptor, sequence (P08588 whole entry): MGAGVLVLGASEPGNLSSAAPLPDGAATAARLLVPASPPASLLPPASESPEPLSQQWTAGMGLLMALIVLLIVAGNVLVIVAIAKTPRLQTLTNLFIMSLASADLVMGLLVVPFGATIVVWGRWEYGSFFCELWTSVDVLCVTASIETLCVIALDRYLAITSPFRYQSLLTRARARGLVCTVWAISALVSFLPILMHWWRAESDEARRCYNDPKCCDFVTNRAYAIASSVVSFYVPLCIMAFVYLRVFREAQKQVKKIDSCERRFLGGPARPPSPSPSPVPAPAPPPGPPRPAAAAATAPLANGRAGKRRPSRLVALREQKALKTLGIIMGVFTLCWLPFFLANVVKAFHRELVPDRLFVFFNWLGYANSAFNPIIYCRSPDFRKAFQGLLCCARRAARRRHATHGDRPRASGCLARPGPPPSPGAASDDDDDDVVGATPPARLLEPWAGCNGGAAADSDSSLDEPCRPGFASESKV
For another assay, the target named is Vasopressin V2 receptor (Homo sapiens, UniProt P30518).
Vasopressin V2 receptor, sequence (P30518 whole entry): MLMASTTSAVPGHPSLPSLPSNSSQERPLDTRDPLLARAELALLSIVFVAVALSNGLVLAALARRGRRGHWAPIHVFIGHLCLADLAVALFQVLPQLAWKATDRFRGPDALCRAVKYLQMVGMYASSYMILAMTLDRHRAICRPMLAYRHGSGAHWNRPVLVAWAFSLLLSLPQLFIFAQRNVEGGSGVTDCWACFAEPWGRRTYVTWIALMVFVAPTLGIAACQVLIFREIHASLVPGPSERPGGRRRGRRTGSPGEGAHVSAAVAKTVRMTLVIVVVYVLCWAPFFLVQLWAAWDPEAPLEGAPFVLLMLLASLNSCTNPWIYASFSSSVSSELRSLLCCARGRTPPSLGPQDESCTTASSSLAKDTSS
For assay [3], the target named is T2, Cholecystokinin receptor type A (Homo sapiens, UniProt P32238).
T2 sequence (P32238 whole entry): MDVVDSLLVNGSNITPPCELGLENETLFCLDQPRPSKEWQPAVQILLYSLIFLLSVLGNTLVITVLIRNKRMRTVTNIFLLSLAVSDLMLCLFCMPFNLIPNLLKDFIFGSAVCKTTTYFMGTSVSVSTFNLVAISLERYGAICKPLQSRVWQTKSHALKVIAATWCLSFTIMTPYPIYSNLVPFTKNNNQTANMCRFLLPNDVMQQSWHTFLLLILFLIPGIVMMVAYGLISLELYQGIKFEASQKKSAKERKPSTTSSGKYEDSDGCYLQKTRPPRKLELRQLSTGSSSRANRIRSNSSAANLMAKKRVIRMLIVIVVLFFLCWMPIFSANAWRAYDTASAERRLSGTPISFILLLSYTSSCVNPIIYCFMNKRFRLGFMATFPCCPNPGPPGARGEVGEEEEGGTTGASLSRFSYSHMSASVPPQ

For assay [4], the target named is T3, Muscarinic acetylcholine receptor M2 (Homo sapiens, UniProt P08172).
T3 sequence (P08172 whole entry): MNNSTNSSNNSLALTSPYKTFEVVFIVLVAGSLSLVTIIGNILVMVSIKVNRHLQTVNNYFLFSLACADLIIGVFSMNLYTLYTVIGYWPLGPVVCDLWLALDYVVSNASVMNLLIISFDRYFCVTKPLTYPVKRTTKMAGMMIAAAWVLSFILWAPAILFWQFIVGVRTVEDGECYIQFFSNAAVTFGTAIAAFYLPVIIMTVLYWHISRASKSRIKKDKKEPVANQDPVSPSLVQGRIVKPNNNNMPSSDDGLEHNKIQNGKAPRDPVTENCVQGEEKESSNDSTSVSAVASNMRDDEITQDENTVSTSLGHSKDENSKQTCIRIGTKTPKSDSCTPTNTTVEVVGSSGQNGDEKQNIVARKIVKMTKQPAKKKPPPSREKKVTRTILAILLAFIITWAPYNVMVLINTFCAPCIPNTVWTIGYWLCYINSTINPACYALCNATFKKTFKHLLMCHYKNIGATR
It counts as functional, cell-based.

The target of assay [5] is T3, Muscarinic acetylcholine receptor M2. The format is functional, cell-based. This is another data set of the same source.
Assay [6] concerns the target Gamma-aminobutyric acid receptor subunit alpha-1 (Rattus norvegicus, UniProt P62813).
For assay [7], the target named is Growth hormone secretagogue receptor type 1 (Homo sapiens, UniProt Q92847).
Growth hormone secretagogue receptor type 1, sequence (Q92847 whole entry): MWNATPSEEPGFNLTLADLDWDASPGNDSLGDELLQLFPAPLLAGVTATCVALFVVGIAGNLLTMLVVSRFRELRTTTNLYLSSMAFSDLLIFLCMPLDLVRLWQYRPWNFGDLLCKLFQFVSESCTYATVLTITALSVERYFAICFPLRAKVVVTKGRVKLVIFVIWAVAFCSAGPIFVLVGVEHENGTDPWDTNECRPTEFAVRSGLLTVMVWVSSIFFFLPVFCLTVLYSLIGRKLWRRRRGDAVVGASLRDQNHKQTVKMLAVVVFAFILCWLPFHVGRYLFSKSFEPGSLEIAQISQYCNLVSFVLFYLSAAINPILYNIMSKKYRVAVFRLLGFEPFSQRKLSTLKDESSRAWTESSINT
Assay [8] deals with Glutamate receptor ionotropic, NMDA 1 (Rattus norvegicus, UniProt P35439).
Assay [9] addresses 5-hydroxytryptamine receptor 2B (Homo sapiens, UniProt P41595). The format is functional, cell-based.
The target of assay [10] is Voltage-gated inwardly rectifying potassium channel KCNH2 (Homo sapiens, UniProt Q12809). The format is functional.
Voltage-gated inwardly rectifying potassium channel KCNH2, sequence (Q12809 whole entry): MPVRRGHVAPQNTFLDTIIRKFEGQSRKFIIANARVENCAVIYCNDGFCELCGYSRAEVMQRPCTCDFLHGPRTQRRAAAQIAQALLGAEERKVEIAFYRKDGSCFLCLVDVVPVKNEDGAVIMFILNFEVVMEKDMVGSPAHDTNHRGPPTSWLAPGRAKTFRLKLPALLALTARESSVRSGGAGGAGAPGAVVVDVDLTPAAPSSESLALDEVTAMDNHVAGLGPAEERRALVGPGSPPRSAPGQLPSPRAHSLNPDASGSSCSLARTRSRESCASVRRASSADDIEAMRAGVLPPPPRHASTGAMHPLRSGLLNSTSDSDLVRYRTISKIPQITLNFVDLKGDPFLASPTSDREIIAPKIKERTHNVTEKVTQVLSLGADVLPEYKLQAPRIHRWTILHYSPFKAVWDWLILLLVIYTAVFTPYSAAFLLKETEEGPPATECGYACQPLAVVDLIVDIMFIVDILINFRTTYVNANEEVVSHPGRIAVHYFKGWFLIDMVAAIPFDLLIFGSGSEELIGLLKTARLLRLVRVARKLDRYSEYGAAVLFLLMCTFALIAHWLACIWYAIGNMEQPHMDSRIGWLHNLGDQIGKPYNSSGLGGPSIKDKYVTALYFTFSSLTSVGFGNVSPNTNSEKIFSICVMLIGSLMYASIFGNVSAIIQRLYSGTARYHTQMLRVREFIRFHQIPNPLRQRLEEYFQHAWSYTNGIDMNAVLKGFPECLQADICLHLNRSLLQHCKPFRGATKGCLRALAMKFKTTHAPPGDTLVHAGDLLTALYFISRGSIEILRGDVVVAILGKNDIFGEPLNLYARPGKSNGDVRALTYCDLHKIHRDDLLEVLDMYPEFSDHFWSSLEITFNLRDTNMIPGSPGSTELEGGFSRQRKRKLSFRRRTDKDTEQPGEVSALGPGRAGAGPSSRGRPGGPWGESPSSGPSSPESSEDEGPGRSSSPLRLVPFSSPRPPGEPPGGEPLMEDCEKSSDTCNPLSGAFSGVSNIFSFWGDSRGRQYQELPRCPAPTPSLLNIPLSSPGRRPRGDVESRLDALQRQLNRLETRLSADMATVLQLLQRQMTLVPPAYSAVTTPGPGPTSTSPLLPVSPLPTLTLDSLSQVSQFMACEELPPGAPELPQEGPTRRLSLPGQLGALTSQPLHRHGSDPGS
In assay [11] the target is Delta-type opioid receptor (Homo sapiens, UniProt P41143).
Delta-type opioid receptor, sequence (P41143 whole entry): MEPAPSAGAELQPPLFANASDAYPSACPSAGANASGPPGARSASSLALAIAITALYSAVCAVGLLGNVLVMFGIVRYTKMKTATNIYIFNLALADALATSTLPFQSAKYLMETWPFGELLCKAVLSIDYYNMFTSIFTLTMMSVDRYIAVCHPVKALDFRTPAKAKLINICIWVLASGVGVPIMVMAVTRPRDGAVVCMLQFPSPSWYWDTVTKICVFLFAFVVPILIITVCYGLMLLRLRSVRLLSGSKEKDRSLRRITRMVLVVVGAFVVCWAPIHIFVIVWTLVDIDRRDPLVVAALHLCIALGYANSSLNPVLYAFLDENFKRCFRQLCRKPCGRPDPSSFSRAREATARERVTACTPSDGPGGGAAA
Assay [12] addresses 3',5'-cyclic-AMP phosphodiesterase 4D (Homo sapiens, UniProt Q08499). It counts as functional.
Assay [13] addresses T4, Equilibrative nucleoside transporter 1 (Homo sapiens, UniProt Q99808).
T4 sequence (Q99808 whole entry): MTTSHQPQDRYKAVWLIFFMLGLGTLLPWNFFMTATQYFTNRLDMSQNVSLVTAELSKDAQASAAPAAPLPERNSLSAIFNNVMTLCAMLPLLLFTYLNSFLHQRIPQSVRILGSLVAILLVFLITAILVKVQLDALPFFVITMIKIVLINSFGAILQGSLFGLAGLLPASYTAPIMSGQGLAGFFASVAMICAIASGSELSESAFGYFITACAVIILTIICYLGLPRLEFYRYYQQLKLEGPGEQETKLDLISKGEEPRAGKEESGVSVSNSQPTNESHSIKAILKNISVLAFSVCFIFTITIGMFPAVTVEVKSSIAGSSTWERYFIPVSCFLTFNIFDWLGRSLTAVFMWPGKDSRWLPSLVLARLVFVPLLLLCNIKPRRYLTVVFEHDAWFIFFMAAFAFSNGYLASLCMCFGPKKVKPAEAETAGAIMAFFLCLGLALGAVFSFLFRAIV
Also: assay procedure not described here.

3',5'-cyclic-AMP phosphodiesterase 4D, sequence (Q08499 whole entry): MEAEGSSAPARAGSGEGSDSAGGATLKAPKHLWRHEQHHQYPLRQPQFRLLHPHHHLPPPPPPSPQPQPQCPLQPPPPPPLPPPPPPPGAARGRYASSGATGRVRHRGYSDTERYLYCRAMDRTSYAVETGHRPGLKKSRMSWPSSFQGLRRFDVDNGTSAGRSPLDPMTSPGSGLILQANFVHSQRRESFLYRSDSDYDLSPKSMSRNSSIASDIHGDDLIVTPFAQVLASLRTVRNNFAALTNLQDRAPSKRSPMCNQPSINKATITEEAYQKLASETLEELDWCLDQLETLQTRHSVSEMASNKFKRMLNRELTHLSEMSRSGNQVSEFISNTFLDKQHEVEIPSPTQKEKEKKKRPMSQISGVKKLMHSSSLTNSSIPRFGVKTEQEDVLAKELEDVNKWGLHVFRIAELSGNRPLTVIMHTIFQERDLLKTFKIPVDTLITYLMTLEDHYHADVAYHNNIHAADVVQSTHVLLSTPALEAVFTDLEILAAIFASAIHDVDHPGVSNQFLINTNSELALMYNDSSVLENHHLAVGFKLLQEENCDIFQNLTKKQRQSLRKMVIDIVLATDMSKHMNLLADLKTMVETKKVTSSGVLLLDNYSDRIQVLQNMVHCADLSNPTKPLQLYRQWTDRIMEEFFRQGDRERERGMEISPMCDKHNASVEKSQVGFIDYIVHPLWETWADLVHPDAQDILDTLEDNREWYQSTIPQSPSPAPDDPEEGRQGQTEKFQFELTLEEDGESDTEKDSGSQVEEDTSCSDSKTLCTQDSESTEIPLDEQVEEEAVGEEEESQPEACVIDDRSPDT
5-hydroxytryptamine receptor 2B, sequence (P41595 whole entry): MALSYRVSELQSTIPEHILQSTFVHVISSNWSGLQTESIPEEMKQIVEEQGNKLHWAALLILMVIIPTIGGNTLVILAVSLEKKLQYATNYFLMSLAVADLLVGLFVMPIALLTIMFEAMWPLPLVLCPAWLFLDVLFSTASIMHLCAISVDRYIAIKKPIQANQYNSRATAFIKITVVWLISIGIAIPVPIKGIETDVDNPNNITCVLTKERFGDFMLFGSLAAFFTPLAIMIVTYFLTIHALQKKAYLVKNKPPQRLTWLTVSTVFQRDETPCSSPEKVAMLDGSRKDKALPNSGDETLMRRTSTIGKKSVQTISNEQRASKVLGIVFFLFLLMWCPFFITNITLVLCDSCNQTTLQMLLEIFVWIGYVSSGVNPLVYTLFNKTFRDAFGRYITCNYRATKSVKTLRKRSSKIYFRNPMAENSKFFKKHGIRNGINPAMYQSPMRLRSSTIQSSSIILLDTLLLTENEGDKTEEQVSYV
Gamma-aminobutyric acid receptor subunit alpha-1, sequence (P62813 whole entry): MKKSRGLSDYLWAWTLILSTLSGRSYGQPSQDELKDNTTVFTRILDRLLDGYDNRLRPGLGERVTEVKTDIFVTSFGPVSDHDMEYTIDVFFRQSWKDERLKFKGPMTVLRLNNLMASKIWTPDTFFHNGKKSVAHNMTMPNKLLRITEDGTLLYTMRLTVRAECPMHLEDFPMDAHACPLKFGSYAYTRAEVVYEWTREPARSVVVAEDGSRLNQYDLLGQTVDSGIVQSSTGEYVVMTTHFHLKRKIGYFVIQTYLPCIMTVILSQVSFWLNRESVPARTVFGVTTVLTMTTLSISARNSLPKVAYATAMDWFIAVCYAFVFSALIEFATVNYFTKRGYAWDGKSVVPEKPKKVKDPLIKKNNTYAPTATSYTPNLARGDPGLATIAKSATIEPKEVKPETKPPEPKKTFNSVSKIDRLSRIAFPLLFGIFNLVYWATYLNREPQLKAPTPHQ

Turning to `O=C1Nc2ccc(Cl)cc2C(c2ccccc2Cl)=NC1O` (stereo not given) [LORAZEPAM], the AC50 was over 10 µM in [1]; over 10 µM in [2]; over 30 µM on Vasopressin V2 receptor; over 30 µM in assay [3]; over 10 µM in [4]; over 10 µM in [5]. Moreover, the AC50 was over 10 µM in assay [6]; over 30 µM in assay [7]; over 10 µM in assay [8]; over 10 µM in assay [9]; over 30 µM in assay [10]; over 30 µM in assay [11]. Moreover, the AC50 in assay [12] and in [13] was over 30 µM throughout.
With `CC(=O)[C@H]1CC[C@H]2[C@@H]3C[C@H](C)C4=CC(=O)CC[C@]4(C)[C@H]3[C@@H](O)C[C@]12C` [MEDRYSONE], the AC50 (in assay [1]; in assay [2]; at Vasopressin V2 receptor; in assay [3]; in assay [4]; in assay [5]) was over 10 µM throughout. The AC50 was over 10 µM in assay [6]; over 10 µM in [7]; over 10 µM in assay [8]; over 10 µM in assay [9]; over 30 µM in [10]; over 30 µM in assay [11]. Moreover, the AC50 was over 30 µM in assay [12] and over 10 µM in assay [13].
`CCCC(C)(COC(N)=O)COC(N)=O` [MEPROBAMATE]: the half-maximal activity concentration (AC50) (in assay [1]; in assay [2]; on Vasopressin V2 receptor; in assay [3]; in assay [4]; in assay [5]) was over 10 µM throughout. Further, the AC50 is over 10 µM in assay [6]; over 10 µM in assay [7]; over 10 µM in assay [8]; over 10 µM in [9]; over 30 µM in [10]; over 30 µM in [11]. Moreover, the AC50 in assay [12] is over 30 µM; in assay [13] it was over 10 µM.
Regarding `COc1ccc2cc(CCC(C)=O)ccc2c1` [NABUMETONE], the AC50 (in assay [1]; in assay [2]; on Vasopressin V2 receptor; in assay [3]; in assay [4]; in assay [5]) was over 10 µM in each case. The AC50 in [6] is over 10 µM; in [7], over 10 µM; in [8], over 10 µM; in assay [9] it was over 10 µM; in assay [10], over 30 µM; in [11], over 30 µM. In addition, the AC50 in [12] and in [13] was over 30 µM each time.
Consider `Cc1ccnc2c1NC(=O)c1cccnc1N2C1CC1` [NEVIRAPINE], for which the AC50 in [1] is over 10 µM; in assay [2] it was over 10 µM; at Vasopressin V2 receptor, over 30 µM; in assay [3] it was over 30 µM; in assay [4] it was over 10 µM; in [5], over 10 µM. Moreover, the AC50 was over 10 µM in assay [6]; over 30 µM in assay [7]; over 10 µM in assay [8]; over 10 µM in [9]; over 30 µM in assay [10]; over 10 µM in [11]. The AC50 in assay [12] was over 10 µM; in assay [13], over 30 µM.
For the compound `O=C(NCCO[N+](=O)[O-])c1cccnc1` [NICORANDIL], the AC50 (in [1]; in [2]; at Vasopressin V2 receptor; in assay [3]; in assay [4]; in assay [5]) was over 30 µM in each case. For the same compound, the AC50 in assay [6], in [7], in [8], in assay [9], in [10] and in assay [11] was over 30 µM throughout. For the same compound, the AC50 in assay [12] and in [13] was over 30 µM in each case.
`O=C(c1cc(Cc2n[nH]c(=O)c3ccccc23)ccc1F)N1CCN(C(=O)C2CC2)CC1` [OLAPARIB]: the AC50 was over 10 µM in [1]; over 30 µM in [2]; over 30 µM at Vasopressin V2 receptor; over 30 µM in assay [3]; over 10 µM in assay [4]; over 10 µM in [5]. Further, the AC50 is over 10 µM in assay [6]; over 30 µM in assay [7]; over 10 µM in assay [8]; over 10 µM in assay [9]; over 30 µM in [10]; over 30 µM in assay [11]. Moreover, the AC50 in assay [12] and in assay [13] was over 30 µM throughout.
In the case of `NC(=O)NC(=O)Cc1ccccc1` [PHENACEMIDE], the concentration at half-maximal activity (AC50) (in assay [1]; in [2]; at Vasopressin V2 receptor; in assay [3]; in assay [4]; in assay [5]) was over 10 µM throughout. The AC50 in [6] is over 10 µM; in assay [7], over 10 µM; in assay [8], over 10 µM; in [9], over 10 µM; in assay [10], over 30 µM; in assay [11], over 30 µM. Further, the figures for the AC50 in assay [12] and in [13] were over 30 µM and over 10 µM, respectively.
As to `OC[C@H]1O[C@@H](Oc2cc(O)cc(/C=C/c3ccc(O)cc3)c2)[C@H](O)[C@@H](O)[C@@H]1O` [PICEID], the concentration at half-maximal activity (AC50) (in [1]; in assay [2]; on Vasopressin V2 receptor; in assay [3]; in assay [4]; in assay [5]) was over 30 µM in each case. Moreover, the AC50 in [6], in assay [7], in assay [8], in [9], in assay [10] and in assay [11] was over 30 µM throughout. The AC50 in assay [12] and in [13] was over 30 µM each time.
As for `O=C1CC[C@@H](C(=O)N2CSC[C@H]2C(=O)O)N1` [PIDOTIMOD] ([pGlu]-[Thz]-OH), the AC50 (in [1]; in assay [2]; on Vasopressin V2 receptor; in assay [3]; in assay [4]; in [5]) was over 30 µM each time. Moreover, the AC50 in assay [6], in assay [7], in assay [8], in [9], in assay [10] and in [11] was over 30 µM in each case. Moreover, the AC50 in assay [12] and in assay [13] was over 30 µM each time.
